Test results taken from US20120149700A1, “2-CYANOPHENYL FUSED HETEROCYCLIC COMPOUNDS, AND COMPOSTIONS AND USES THEREOF” (priority 2007, published 2012).

Tests used:
[1] = biological target: T1, P2X2/3 (Homo sapiens, UniProt P56373+Q9UBL9); assay: Calcium uptake assay (P2X antagonist assay, inhibition of agonist-induced calcium influx), P2X2/3; assay type: cell-based; details: inhibition of agonist-induced calcium influx in cells expressing the receptor
T1 construct: expressed in transfected cells; host or cells: cell line stably expressing P2X2, stably transfected with P2X3 (e.g. HEK293 or 1321N1)
T1 sequence (Q9UBL9 1-471): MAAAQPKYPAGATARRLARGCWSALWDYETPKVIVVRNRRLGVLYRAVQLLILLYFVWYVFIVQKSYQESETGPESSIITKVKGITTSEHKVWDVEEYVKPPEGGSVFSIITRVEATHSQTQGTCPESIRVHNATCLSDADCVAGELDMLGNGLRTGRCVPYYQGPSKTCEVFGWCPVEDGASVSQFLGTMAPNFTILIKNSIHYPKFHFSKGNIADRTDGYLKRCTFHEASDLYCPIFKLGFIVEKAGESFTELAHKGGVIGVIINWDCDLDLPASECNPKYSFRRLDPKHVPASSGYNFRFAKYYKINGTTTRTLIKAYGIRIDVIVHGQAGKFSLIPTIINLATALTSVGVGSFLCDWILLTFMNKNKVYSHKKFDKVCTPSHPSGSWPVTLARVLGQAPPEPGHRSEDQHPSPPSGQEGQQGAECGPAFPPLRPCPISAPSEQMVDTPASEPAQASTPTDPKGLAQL
T1 sequence (P56373 1-397): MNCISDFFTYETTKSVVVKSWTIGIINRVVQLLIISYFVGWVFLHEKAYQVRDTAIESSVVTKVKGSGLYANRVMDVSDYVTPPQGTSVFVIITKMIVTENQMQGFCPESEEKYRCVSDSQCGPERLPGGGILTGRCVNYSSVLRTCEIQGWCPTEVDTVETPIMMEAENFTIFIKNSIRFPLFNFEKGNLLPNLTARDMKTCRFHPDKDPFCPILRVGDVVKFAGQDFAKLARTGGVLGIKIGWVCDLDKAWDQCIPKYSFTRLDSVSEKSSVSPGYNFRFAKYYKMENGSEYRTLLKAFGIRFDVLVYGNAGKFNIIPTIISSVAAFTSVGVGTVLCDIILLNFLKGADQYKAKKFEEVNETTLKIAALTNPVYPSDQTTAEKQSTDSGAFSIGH
Excerpt: (§1) The human P2X2/3 chimera clone is created as described by Neelands et al, and then cloned into an expression vector as above. Receptors are expressed in cells (e.g., HEK293 or 1321N1 (obtained from the ECACC)) via transient transfection using standard lipid mediated transfection, or by creation of stable transfectants for each receptor. For expression of the P2X2/3 heteromeric receptor, the P2X3 expression vector is stably transfected into a cell line already stably expressing P2X2. P2X2/3 heteromer function is isolated using pharmacological methods. Cell lines are maintained in DMEM+5% Glutamax, the appropriate level of selective antibiotic, and 10% heat inactivated FBS.
(§2) Functional activity of compounds at the P2X receptor is determined by measuring their ability to inhibit agonist-induced calcium influx. Compounds are tested for antagonist activity against the P2X2/3 chimera, the P2X3 homomer, or the P2X2/3 heteromer. At the start of each screening day, the agonist EC50 is determined. Compound % inhibition or IC50s are subsequently determined using a pre-determined agonist concentration (EC50-90 depending on cell line) as a stimulus. The agonists used are αβMeATP, ATP, or other ATP analogs. Compounds may be tested at concentrations ranging from 1 pM to 10 μM.
(§3) To test for antagonist activity, cells expressing the appropriate receptor are seeded onto 96 or 384 well plates 18-24 hours prior to assay. […] Plates are incubated at 37° C. and then equilibrated at room temperature. Antagonism of agonist-induced calcium influx is measured using a fluorescent imaging plate reader (e.g. FLIPR^TETRA, Molecular Devices, Sunnyvale, Calif.). The assay comprises two stages: a pre-treatment phase followed by a treatment phase. Compounds may be tested as follows: For the pre-treatment phase, 50 μL of 3× concentration of test compound in HBSS is added to cells containing 100 μL of dye loading media to achieve a final concentration of 1× test compound. For the treatment phase, at a set interval after pre-treatment (1-30 minutes), 50 μl, of 1× test compound plus 4× agonist solution is added, resulting in a final concentration of 1× compound and 1× agonist. […] Responses are measured as (peak fluorescence after agonist addition) minus (baseline fluorescence prior to treatment). Percent inhibition is calculated as follows: […]
(§4) IC50 values are determined by analyzing dose response data in a 4 parameter logistic fit using GraphPad Prizm.

[2] = biological target: T2, P2X3 (Homo sapiens, UniProt P56373); assay: Calcium uptake assay (P2X antagonist assay, inhibition of agonist-induced calcium influx), P2X3; assay type: cell-based; details: inhibition of agonist-induced calcium influx in cells expressing the receptor
T2 construct: expressed in transfected cells; host or cells: e.g. HEK293 or 1321N1
T2 sequence (P56373 1-397): T1 sequence (P56373 1-397)
Excerpt: as §1, §2, §3, §4

Cc1ccc(N2CCc3ncnc(NCc4ccc(C(F)(F)F)nc4)c3C2)c(C#N)c1 [Compound 1, 5-Methyl-2-{4-[(6-trifluoromethyl-pyridin-3-ylmethyl)-amino]-7,8-dihydro-5H-pyrido[4,3-d]pyrimidin-6-yl}-benzonitrile]
IC50 [1]: 92 nM | IC50 [2]: 19 nM

N#Cc1cc(Br)ccc1N1CCc2ncnc(NCc3ccc(C(F)(F)F)nc3)c2C1 [Compound 2, 5-Bromo-2-{4-[(6-trifluoromethyl-pyridin-3-ylmethyl)-amino]-7,8-dihydro-5H-pyrido[4,3-d]pyrimidin-6-yl}-benzonitrile]
IC50 [2]: 80 nM

N#Cc1cc(C2CC2)ccc1N1CCc2ncnc(NCc3ccc(C(F)(F)F)nc3)c2C1 [Compound 3, 5-Cyclopropyl-2-{4-[(6-trifluoromethyl-pyridin-3-ylmethyl)-amino]-7,8-dihydro-5H-pyrido[4,3-d]pyrimidin-6-yl}-benzonitrile]
IC50 [2]: 870 nM

N#Cc1cc(Cl)ccc1N1CCc2ncnc(NCc3ccc(C(F)(F)F)nc3)c2C1 [Compound 4, 5-Chloro-2-{4-[(6-trifluoromethyl-pyridin-3-ylmethyl)-amino]-7,8-dihydro-5H-pyrido[4,3-d]pyrimidin-6-yl}-benzonitrile]
IC50 [1]: 842 nM | IC50 [2]: 37 nM

N#Cc1cc(C(F)(F)F)ccc1N1CCc2ncnc(NCc3ccc(C(F)(F)F)nc3)c2C1 [Compound 5, 5-Trifluoromethyl-2-{4-[(6-trifluoromethyl-pyridin-3-ylmethyl)-amino]-7,8-dihydro-5H-pyrido[4,3-d]pyrimidin-6-yl}-benzonitrile]
IC50 [2]: 1840 nM

N#Cc1cc(F)ccc1N1CCc2ncnc(NCc3ccc(C(F)(F)F)nc3)c2C1 [Compound 9, 5-Fluoro-2-{4-[(6-trifluoromethyl-pyridin-3-ylmethyl)-amino]-7,8-dihydro-5H-pyrido[4,3-d]pyrimidin-6-yl}-benzonitrile]
IC50 [1]: 11400 nM | IC50 [2]: 85 nM

N#Cc1ccccc1N1CCc2ncnc(NCc3ccc(C(F)(F)F)nc3)c2C1 [Compound 10, 2-{4-[(6-Trifluoromethyl-pyridin-3-ylmethyl)-amino]-7,8-dihydro-5H-pyrido[4,3-d]pyrimidin-6-yl}-benzonitrile]
IC50 [1]: 1810 nM | IC50 [2]: 63 nM

Cc1nc(C(F)(F)F)ccc1CNc1ncnc2c1CN(c1ccc(Cl)cc1C#N)CC2 [Compound 11, 5-Chloro-2-(4-((2-methyl-6-(trifluoromethyl)pyridin-3-yl)methylamino)-7,8-dihydropyrido[4,3-d]pyrimidin-6(5H)-yl)benzonitrile]
IC50 [1]: > 10000 nM | IC50 [2]: 187 nM

CN(C)c1ccc(CNc2ncnc3c2CN(c2ccc(Cl)cc2C#N)CC3)cn1 [Compound 12, 5-Chloro-2-(4-((6-(dimethylamino)pyridin-3-yl)methylamino)-7,8-dihydropyrido[4,3-d]pyrimidin-6(5H)-yl)benzonitrile]
IC50 [1]: 1190 nM | IC50 [2]: 628 nM

COc1ccc(CNc2ncnc3c2CN(c2ccc(Cl)cc2C#N)CC3)cn1 [Compound 13, 5-Chloro-2-(4-((6-methoxypyridin-3-yl)methylamino)-7,8-dihydropyrido[4,3-d]pyrimidin-6(5H)-yl)benzonitrile]
IC50 [1]: 169 nM | IC50 [2]: 59 nM

COc1ccc(CNc2ncnc3c2CN(c2ccc(Br)cc2C#N)CC3)cn1 [Compound 14, 5-Bromo-2-(4-((6-methoxypyridin-3-yl)methylamino)-7,8-dihydropyrido[4,3-d]pyrimidin-6(5H)-yl)benzonitrile]
IC50 [1]: 325 nM | IC50 [2]: 78 nM

N#Cc1cc(Cl)ccc1N1CCc2ncnc(NCc3ncc(C(F)(F)F)cc3Cl)c2C1 [Compound 16, 5-Chloro-2-{4-[(3-chloro-5-trifluoromethyl-pyridin-2-ylmethyl)-amino]-7,8-dihydro-5H-pyrido[4,3-d]pyrimidin-6-yl}-benzonitrile]
IC50 [1]: 1130 nM | IC50 [2]: 91 nM

N#Cc1cc(Cl)ccc1N1CCc2ncnc(NCc3ccc(C(F)(F)F)cn3)c2C1 [Compound 17, 5-Chloro-2-{4-[(5-trifluoromethyl-pyridin-2-ylmethyl)-amino]-7,8-dihydro-5H-pyrido[4,3-d]pyrimidin-6-yl}-benzonitrile]
IC50 [1]: 4890 nM | IC50 [2]: 118 nM

COc1ccc([C@@H](CC(=O)OC(C)(C)C)Nc2ncnc3c2CN(c2ccc(Cl)cc2C#N)CC3)cn1 [Compound 18, (R)-3-[6-(4-Chloro-2-cyano-phenyl)-5,6,7,8-tetrahydro-pyrido[4,3-d]pyrimidin-4-ylamino]-3-(6-methoxy-pyridin-3-yl)-propionic acid tert-butyl ester]
IC50 [1]: > 10000 nM | IC50 [2]: > 10000 nM

COc1ccc([C@@H](CC(=O)O)Nc2ncnc3c2CN(c2ccc(Cl)cc2C#N)CC3)cn1 [Compound 19, (R)-3-[6-(4-Chloro-2-cyano-phenyl)-5,6,7,8-tetrahydro-pyrido[4,3-d]pyrimidin-4-ylamino]-3-(6-methoxy-pyridin-3-yl)-propionic acid]
IC50 [1]: > 10000 nM | IC50 [2]: 1380 nM

N#Cc1cc(Cl)ccc1N1CCc2ncnc(N[C@H](CCO)c3ccc(C(F)(F)F)nc3)c2C1 [Compound 20, 5-Chloro-2-{4-[(R)-3-hydroxy-1-(6-trifluoromethyl-pyridin-3-yl)-propylamino]-7,8-dihydro-5H-pyrido[4,3-d]pyrimidin-6-yl}-benzonitrile]
IC50 [1]: 903 nM | IC50 [2]: 90 nM

Cc1ccc(N2CCc3ncnc(N[C@H](CCO)c4ccc(C(F)F)nc4)c3C2)c(C#N)c1 [Compound 22, 2-{4-[(R)-1-(6-Difluoromethyl-pyridin-3-yl)-3-hydroxy-propylamino]-7,8-dihydro-5H-pyrido[4,3-d]pyrimidin-6-yl}-5-methyl-benzonitrile]
IC50 [1]: 43 nM | IC50 [2]: 13 nM

Cc1ccc(N2CCc3ncnc(NC(CCO)c4ccc(C(F)(F)F)nc4)c3C2)c(C#N)c1 (stereo not drawn) [Compound 25, 2-{4-[3-Hydroxy-1-(6-trifluoromethyl-pyridin-3-yl)-propylamino]-7,8-dihydro-5H-pyrido[4,3-d]pyrimidin-6-yl}-5-methyl-benzonitrile]
IC50 [1]: 136 nM | IC50 [2]: 55 nM

Cc1ccc(N2CCc3ncnc(NCc4ccc(Cl)nc4)c3C2)c(C#N)c1 [Compound 27, 2-{4-[(6-Chloro-pyridin-3-ylmethyl)-amino]-7,8-dihydro-5H-pyrido[4,3-d]pyrimidin-6-yl}-5-methyl-benzonitrile]
IC50 [1]: 25 nM | IC50 [2]: 11 nM

Cc1ccc(N2CCc3ncnc(NCc4ccc(Cl)cn4)c3C2)c(C#N)c1 [Compound 28, 2-{-4-[(5-Chloro-pyridin-2-ylmethyl)-amino]-7,8-dihydro-5,1-pyrido[4,3-d]pyrimidin-6-yl}-5-methyl-benzonitrile]
IC50 [1]: 152 nM | IC50 [2]: 29 nM

Cc1ccc(N2CCc3ncnc(NCc4ccccn4)c3C2)c(C#N)c1 [Compound 29, 5-Methyl-2-{4-[(pyridin-2-ylmethyl)-amino]-7,8-dihydro-5H-pyrido[4,3-d]pyrimidin-6-yl}-benzonitrile]
IC50 [1]: 1670 nM | IC50 [2]: 196 nM
